This note sets out measurements from patent publication US11987566B2, “Nerve damage preventing and nerve protecting compounds, preparation method thereof, pharmaceutical composition thereof, and their use” (GENHEALTH PHARMA CO., LTD., priority 2022, dated 2024).

The subject of assay [1] is transient focal Middle Cerebral Artery Occlusion/Reperfusion model (MCAO/R model). The assay can be described thus: Evaluation of the effect of preventing nerve damage: total infarct volume (TTC staining) in MCAO/R model. In kind it is in vivo, male Sprague Dawley rat. The settings on record: SD rat, 50 mg/kg intraperitoneal once 10 minutes before MCAO/R; 1 hour ischemia, 24 hours blood reperfusion; vehicle group 40.48. On the procedure: Besides the foresaid experimental groups, only pure solvent used was treated as vehicle group, and a sham group, which was not administrated with any compound or solvent or with nylon monofilament to cause obstruction and ischemia, was also included. In this test example, transient focal Middle Cerebral Artery Occlusion/Reperfusion model (MCAO/R model) was adopted to simulate ischemic stroke for evaluating the subsequent nerve damage. Specifically, male Sprague Dawley rat (SD rat) was adopted and anaesthetized with 2% isoflurane, and then the right common carotid artery, external carotid artery and internal carotid artery were distinguished among them from the neck. Next, a nylon monofilament with length of 22 millimeters (mm), size number of 4/0 and capped with polysiloxane was inserted into the external carotid artery and along with the […] to the circle of Willis to induce obstruction and ischemia in the middle cerebral artery. After causing obstruction and ischemia for 1 hour, the nylon monofilament was removed to allow the blood recirculated to the brain, in other words, to undergo blood reperfusion. After blood reperfusion for 24 hours, the rat was sacrificed and the brain thereof was placed into a cooled 0.95% saline. […] Afterward, the sliced brain tissues were stained with a 4% […] solution, and then MacroPATH Digital Imaging System was used to record the images and the obtained images were analyzed by ImageJ 1.52a to count the infarct volume percent, which could represent the degree of nerve damage. The foresaid infarct volume percent was obtained by adding the values acquired by multiplying the proportion of infarct area of each sliced brain tissue with their thickness, and the proportion of infarct area was calculated by the equation: (B−A)/B×100%; wherein, “A” represented the undamaged area in the damaged cerebral hemisphere on the right side, and “B” represented the total area of the undamaged cerebral hemisphere on the left side. […]

The test system is the same in assay [2]. Description: Neurobehavioral evaluation (Bederson classification) after MCAO/R. The settings on record: Bederson Grade 0-4, SD rat, 50 mg/kg intraperitoneal, vehicle group 2.80.

On to `COc1c(C)c(CC=C(C)C)c(OC)c2c1OCO2` [Example 1], for which the “Total infarct volume percent (%)” value in assay [1] is on record as 28.82%. In assay [2], the “Grade (neurobehavioral evaluation), time point of 0.5-hour after blood reperfusion” value (shortened to “Grade … of 0.5-hour after blood reperfusion”) is on record as 2.60 and the “Grade (neurobehavioral evaluation), time point of 1.5-hour after blood reperfusion” value (shortened to “Grade … of 1.5-hour after blood reperfusion”) amounted to 2.80. Also, the “Grade (neurobehavioral evaluation), time point of 24-hour after blood reperfusion” value in assay [2] (24 hour after blood reperfusion) was found to be 2.60.

As to `COc1cc(CC=C(C)C)c(OC)c2c1OCO2` [Example 4], in assay [1], the “Total infarct volume percent (%)” value was found to be 16.4%. In assay [2], the “Grade … of 0.5-hour after blood reperfusion” value is reported as 2.60 and the “Grade … of 1.5-hour after blood reperfusion” value worked out at 2.60.

In the case of `COc1cc(COC(C)=O)c(OC)c2c1OCO2` [Example 3], the “Total infarct volume percent (%)” value in assay [1] was 17.13%. Moreover, in assay [2], the “Grade … of 0.5-hour after blood reperfusion” value is 2.80 and the “Grade … of 1.5-hour after blood reperfusion” value is given as 2.60.
